Numbered stars: 1 amine (or outer) side, 2 acyl side, 3 side chain; on linkers, the order of the positions; unused ones are H or OH. Bridge positions count the residues as written; N and C are the ends. Square brackets hold non-standard residues; d marks the D form. Peptide text beside a SMILES is read from it. * marks the point of attachment. Ala(piperidin-4-yl) = O=C([C@H](CC1CCN([*:3])CC1)N[*:1])[*:2]; DOTA = O=C(O)CN1CCN(CC(=O)O)CCN(CC(=O)*)CCN(CC(=O)O)CC1; Ala(morpholin-4-yl) = N[C@@H](CN1CCOCC1)C(=O)O; 2Nal = N[C@@H](Cc1ccc2ccccc2c1)C(=O)O; 3Pal = N[C@@H](Cc1cccnc1)C(=O)O; 4Pal = N[C@@H](Cc1ccncc1)C(=O)O
Columns and labels:
human DLL3 = target: T1, human DLL3 (Homo sapiens, UniProt Q9NYJ7); assay: Affinity determination by Surface Plasmon Resonance (SPR); assay type: binding; conditions: 25° C., biotinylated human DLL3 immobilized on streptavidin sensor chip, 1:1 binding model; read-out: SPR KD
T1 sequence (Q9NYJ7 27-618): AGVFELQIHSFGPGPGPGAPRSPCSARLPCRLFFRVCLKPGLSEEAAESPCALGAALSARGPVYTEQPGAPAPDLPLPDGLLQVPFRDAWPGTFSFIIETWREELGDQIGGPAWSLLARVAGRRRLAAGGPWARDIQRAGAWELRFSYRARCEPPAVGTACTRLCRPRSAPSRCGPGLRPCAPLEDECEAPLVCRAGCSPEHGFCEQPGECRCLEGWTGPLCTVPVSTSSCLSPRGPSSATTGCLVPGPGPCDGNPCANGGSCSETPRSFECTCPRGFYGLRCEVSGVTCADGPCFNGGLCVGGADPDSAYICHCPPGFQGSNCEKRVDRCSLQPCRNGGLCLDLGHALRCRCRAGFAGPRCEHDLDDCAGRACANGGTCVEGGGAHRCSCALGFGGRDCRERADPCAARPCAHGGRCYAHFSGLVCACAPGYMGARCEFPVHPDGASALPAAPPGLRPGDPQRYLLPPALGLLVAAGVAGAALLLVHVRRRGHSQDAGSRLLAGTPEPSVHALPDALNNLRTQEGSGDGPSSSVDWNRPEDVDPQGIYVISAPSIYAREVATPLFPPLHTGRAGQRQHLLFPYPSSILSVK
Outline: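 Biotinylated human DLL3 was captured on a streptavidin chip with a reference surface. Compounds at several concentrations were injected at 100 μL/minute in phosphate buffer (137 mM NaCl, 2.7 mM KCl, 0.05% P20, 2% DMSO). Affinity and kinetics came from 1:1 model fits of the sensorgrams.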

CT26.DLL3 cells [1] = assay: Cell binding (total uptake) of [177Lu]Lu-test peptide, CT26.DLL3 cells; assay type: cell-based; conditions: 1 hour at 37° C.
Experimental: (§1) [^177Lu]LuCl3 was received from venders in HCl solution. For every mCi of [^177Lu]LuCl3 added to the reaction vial (1.5 mL Eppendorf vial), ammonium acetate buffer (0.2 M, pH 4.9, 100 μL, containing 1% w/v ascorbic acid and 6% v/v ethanol) and peptide conjugate (1 nmol). A peptide conjugate of the present disclosure is also referred to herein as a “chelator-peptide”. The pH of the solution was determined to be approximately 5 by using pH strips. The reaction vial was incubated at 80° C., 700 RPM for 17-20 minutes. A sample from the reaction was analyzed by RP-HPLC using an Agilent Infinity II 1260 HPLC to determine reaction completion and radiochemical purity of [^177Lu]Lu-chelator-peptide. HPLC conditions: Waters XBridge BEH C18 Column, 130 Å, 3.5 um, 4.6 mm×250 mm; mobile phase: Solvent A=water (with 0.1% formic acid), solvent B=acetonitrile (with 0.1% formic acid). Gradients: 25-45% B in 10 minutes, 45-65% B in 12 minutes, 65-90% in 6 minutes at a flow rate of 0.5 mL/minute. Required amounts of the product was formulated in 1% PBSA for cell studies.
(§2) The study was conducted using SHP-77, CT26.WT, and CT26.DLL3 cells (Table 7) Adherent cell studies: The cells were cultured in appropriate culture media (20 mL) in tissue culture treated T150 flasks at 37° C. and 5% CO2. Adherent cells were detached (60-70% confluent) using 5 mL Versene at 37° C. for 3 minutes. After confirming the viability using countess and count of detached cells using Trypan blue, the cells were centrifuged at 4° C. for 5 minutes (1,000 rpm). The cell pellet obtained was washed once with PBS and resuspended in 1% PBSA to obtain the desired cell concentration (5-25 million cells/mL).
(§3) Cell numbers used for the assay were in the range of 5 million cells/condition −25 million cells/condition.
(§4) Total uptake: Cells were incubated with 300 μL (0.8 μCi) of the incubation buffer (containing radiolabeled peptide [^177Lu] Lu-test peptide) for 1 hour at 37° C. (Table 8). Post incubation, the cells were pelleted and washed 2 times using cold PBS+1% BSA. The supernatant and washes were combined and counted together as “unbound fraction” in a gamma counter. The cells were then resuspended in 300 μL of 1% PBS+1% BSA and counted in the gamma counter as “bound fraction”.
(§5) In these Tables, “A” represents %≤25; “B” represents 25<%≤50; “C” represents %>50.

CT26.DLL3 cells [2] = assay: Internalization (out of bound fraction) of [177Lu]Lu-test peptide, CT26.DLL3 cells; assay type: cell-based; conditions: 1 hour at 37° C., glycine pH 2.5 wash
Experimental: as §1, §2, §3, §4
Internalization: The resuspended cells in 300 μl of 1% PBSA and counted in the gamma counter as “bound fraction” were collected in 1.5 mL Eppendorf tube and pelleted. The pelleted cells were incubated with 300 μl of 50 mM Glycine pH=2.5 for 3 minutes and then pelleted discarding the supernatant. This process was repeated one more time. The pelleted cells were washed with 300 μl of cold 1% PBSA and then resuspended in 300 μl 0.3M NaOH. This was counted in the gamma counter as “internalized fraction”.
as §5

SHP-77 tumors = assay: Ex vivo biodistribution of radiolabeled peptides in nude mice bearing SHP-77 tumors; conditions: [177Lu]Lu labelling, nude mice bearing SHP-77 tumors (n = 3), 24 hours post-injection
Experimental: Mice were intravenously injected (via the lateral tail vein) with a bolus dose of the radiolabeled peptides for ex vivo biodistribution studies when tumor volumes were in range of 200-400 mm^3 for xenograft mice and when age of the mice was 5-7 weeks for tumor naïve mice studies. To assess the amount of radionuclide injected into individual mice the syringe was assayed in a dose calibrator before and after injection for [^177Lu]Lu-peptide.
Mice were euthanized at pre-determined time points and selected tissues were resected and collected into pre-weighed tubes. The tubes were then reweighed post resection, the difference giving the weight of each tissue. Radioactivity in each tissue was measured using a gamma counter. Counts were decay corrected to the time of injection and percentage of injected activity per gram (% IA/g) was calculated for each tissue based on the injected activity into each individual mouse. Injected activity was converted to counts based on the sensitivity of the gamma counter. The counts in tissue were then converted to the percentage of injected activity and this was divided by the mass of tissue to give % IA/g.

Kd (human DLL3) [nM] | kidney uptake (% IA/g) (SHP-77 tumors) | tumor uptake (% IA/g) (SHP-77 tumors) | Structure (SMILES) | % Binding (CT26.DLL3 cells [1]) | % Internalization (out of bound fraction) (CT26.DLL3 cells [2])
< 1 | D (% IA/g > 10 in kidney) | A (0 < % IA/g ≤ 5 in tumor) | CC[C@H](C)[C@H](NC(=O)[C@@H](NC(=O)[C@H](Cc1c[nH]c2ccccc12)NC(C)=O)[C@@H](C)O)C(=O)N[C@H]1CSSC[C@@H](C(=O)N[C@@H](Cc2c[nH]c3ccccc23)C(=O)N2CCC[C@H]2C(=O)N[C@H](CCCCNC(=O)CN2CCN(CC(=O)O)CCN(CC(=O)O)CCN(CC(=O)O)CC2)C(N)=O)NC(=O)[C@H](CC(N)=O)NC(=O)[C@H](Cc2cnc[nH]2)NC(=O)[C@H](Cc2ccc3ccccc3c2)NC(=O)[C@H](CC(N)=O)NC(=O)[C@H](CC(N)=O)NC1=O [compound 211, Ac-W-T-I-C(3)-N-N-(2Nal)-H-(Asn)-C(3)-W-P-[D-Lys(DOTA)]-NH2] (Ac-WTICNN[2Nal]HNCWP[dK](DOTA)-NH2; disulfide 4-10) | A (%≤25) | B (25<%≤50)
< 1 |  |  | CC[C@H](C)[C@H](NC(=O)[C@@H](NC(=O)[C@H](Cc1c[nH]c2ccccc12)NC(C)=O)[C@@H](C)O)C(=O)N[C@H]1CSSC[C@@H](C(=O)N[C@@H](Cc2c[nH]c3ccccc23)C(=O)N2CCC[C@H]2C(=O)N[C@H](CCCCNC(=O)CN2CCN(CC(=O)O)CCN(CC(=O)O)CCN(CC(=O)O)CC2)C(N)=O)NC(=O)[C@H](CC(=O)O)NC(=O)[C@H](Cc2cnc[nH]2)NC(=O)[C@H](Cc2ccc3ccccc3c2)NC(=O)[C@H](CC(N)=O)NC(=O)[C@H](CCCCN)NC1=O [compound 259] (Ac-WTICKN[2Nal]HDCWP[dK](DOTA)-NH2; disulfide 4-10) | B (25<%≤50) | 
< 1 | C (0 < % IA/g ≤ 10 in kidney) | A (0 < % IA/g ≤ 5 in tumor) | CC[C@H](C)[C@H](NC(=O)[C@@H](NC(=O)[C@H](Cc1c[nH]c2ccccc12)NC(C)=O)[C@@H](C)O)C(=O)N[C@H]1CSSC[C@@H](C(=O)N[C@@H](Cc2c[nH]c3ccccc23)C(=O)N2CCC[C@H]2C(=O)N[C@H](CCCCNC(=O)CN2CCN(CC(=O)O)CCN(CC(=O)O)CCN(CC(=O)O)CC2)C(N)=O)NC(=O)[C@H](CC(=O)O)NC(=O)[C@H](Cc2cnc[nH]2)NC(=O)[C@H](Cc2ccc3ccccc3c2)NC(=O)[C@H](CC(N)=O)NC(=O)[C@H](CC2CCNCC2)NC1=O [compound 260, Ac-W-T-I-C(3)-[3-(4-piperidinyl)-Ala]-N-(2Nal)-H-D-C(3)-W-P-[D-Lys(DOTA)]-NH2] (Ac-WTIC[Ala(piperidin-4-yl)]N[2Nal]HDCWP[dK](DOTA)-NH2; disulfide 4-10) | B (25<%≤50) | 
< 1 | C (0 < % IA/g ≤ 10 in kidney) | A (0 < % IA/g ≤ 5 in tumor) | CC[C@H](C)[C@H](NC(=O)[C@@H](NC(=O)[C@H](Cc1c[nH]c2ccccc12)NC(C)=O)[C@@H](C)O)C(=O)N[C@H]1CSSC[C@@H](C(=O)N[C@@H](Cc2c[nH]c3ccccc23)C(=O)N2CCC[C@H]2C(=O)N[C@H](CCCCNC(=O)CN2CCN(CC(=O)O)CCN(CC(=O)O)CCN(CC(=O)O)CC2)C(N)=O)NC(=O)[C@H](CC(=O)O)NC(=O)[C@H](Cc2cnc[nH]2)NC(=O)[C@H](Cc2ccc3ccccc3c2)NC(=O)[C@H](CC(N)=O)NC(=O)[C@H](CN2CCOCC2)NC1=O [compound 261, Ac-W-T-I-C(3)-[3-(1-morpholinyl)-Ala]-N-(2Nal)-H-D-C(3)-W-P-[D-Lys(DOTA)]-NH2] (Ac-WTIC[Ala(morpholin-4-yl)]N[2Nal]HDCWP[dK](DOTA)-NH2; disulfide 4-10) | A (%≤25) | B (25<%≤50)
< 1 | C (0 < % IA/g ≤ 10 in kidney) | A (0 < % IA/g ≤ 5 in tumor) | CC[C@H](C)[C@H](NC(=O)[C@@H](NC(=O)[C@H](Cc1c[nH]c2ccccc12)NC(C)=O)[C@@H](C)O)C(=O)N[C@H]1CSSC[C@@H](C(=O)N[C@@H](Cc2c[nH]c3ccccc23)C(=O)N2CCC[C@H]2C(=O)N[C@H](CCCCNC(=O)CN2CCN(CC(=O)O)CCN(CC(=O)O)CCN(CC(=O)O)CC2)C(N)=O)NC(=O)[C@H](CC(=O)O)NC(=O)[C@H](Cc2cnc[nH]2)NC(=O)[C@H](Cc2ccc3ccccc3c2)NC(=O)[C@H](CC(N)=O)NC(=O)[C@H](Cc2cccnc2)NC1=O [compound 263, Ac-W-T-I-C(3)-(3Pya)-N-(2Nal)-H-D-C(3)-W-P-[D-Lys(DOTA)]-NH2] (Ac-WTIC[3Pal]N[2Nal]HDCWP[dK](DOTA)-NH2; disulfide 4-10) | A (%≤25) | B (25<%≤50)
< 1 | C (0 < % IA/g ≤ 10 in kidney) | A (0 < % IA/g ≤ 5 in tumor) | CC[C@H](C)[C@H](NC(=O)[C@@H](NC(=O)[C@H](Cc1c[nH]c2ccccc12)NC(C)=O)[C@@H](C)O)C(=O)N[C@H]1CSSC[C@@H](C(=O)N[C@@H](Cc2c[nH]c3ccccc23)C(=O)N2CCC[C@H]2C(=O)N[C@H](CCCCNC(=O)CN2CCN(CC(=O)O)CCN(CC(=O)O)CCN(CC(=O)O)CC2)C(N)=O)NC(=O)[C@H](CC(=O)O)NC(=O)[C@H](Cc2cnc[nH]2)NC(=O)[C@H](Cc2ccc3ccccc3c2)NC(=O)[C@H](CC(N)=O)NC(=O)[C@H](Cc2ccncc2)NC1=O [compound 264, Ac-W-T-I-C(3)-(4Pya)-N-(2Nal)-H-D-C(3)-W-P-[D-Lys(DOTA)]-NH2] (Ac-WTIC[4Pal]N[2Nal]HDCWP[dK](DOTA)-NH2; disulfide 4-10) | A (%≤25) | B (25<%≤50)
